One test addresses T1, Bmx (Homo sapiens, UniProt P51813).
T1 construct: purchased Upstate (KinaseProfiler panel)
T1 sequence (P51813 1-675): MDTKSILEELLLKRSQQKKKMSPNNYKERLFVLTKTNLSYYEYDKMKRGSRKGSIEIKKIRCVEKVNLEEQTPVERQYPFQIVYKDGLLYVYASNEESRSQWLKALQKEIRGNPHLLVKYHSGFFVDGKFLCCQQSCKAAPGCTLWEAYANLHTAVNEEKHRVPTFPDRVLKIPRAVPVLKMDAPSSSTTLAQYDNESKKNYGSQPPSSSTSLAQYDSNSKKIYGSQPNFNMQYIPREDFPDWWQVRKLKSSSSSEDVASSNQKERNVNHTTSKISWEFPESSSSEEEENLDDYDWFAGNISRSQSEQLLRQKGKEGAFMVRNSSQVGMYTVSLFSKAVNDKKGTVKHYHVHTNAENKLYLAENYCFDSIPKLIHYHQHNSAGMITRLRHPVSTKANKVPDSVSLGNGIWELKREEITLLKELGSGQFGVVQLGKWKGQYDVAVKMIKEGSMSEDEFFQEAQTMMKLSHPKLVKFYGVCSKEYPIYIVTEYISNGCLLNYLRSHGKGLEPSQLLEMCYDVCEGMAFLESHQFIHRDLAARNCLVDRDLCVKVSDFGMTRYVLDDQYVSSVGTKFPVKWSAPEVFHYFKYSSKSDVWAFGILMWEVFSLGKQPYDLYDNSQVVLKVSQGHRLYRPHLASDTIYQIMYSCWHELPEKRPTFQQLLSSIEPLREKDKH
Briefly: Upstate KinaseProfiler radio-enzymatic filter binding assay, Bmx. Particulars: at a concentration of 10 μM; read-out: percentage inhibition of Bmx. The class given is biochemical. As to the method:
(§1) Compounds of the invention are assessed for their ability to inhibit individual members of a panel of kinases (a partial, non-limiting list of kinases includes: BMX, CSK, TrkB, FGFR3, Fes, Lck, B-RAF, C-RAF, MKK6, SAPK2α and SAPK2β). The compounds are tested in duplicates at a final concentration of 10 μM following this generic protocol. Note that the kinase buffer composition and the substrates vary for the different kinases included in the “Upstate KinaseProfiler™” panel. Kinase buffer (2.5 μL, 10×—containing MnCl2 when required), active kinase (0.001-0.01 Units; 2.5 μL), specific or Poly(Glu4-Tyr) peptide (5-500 μM or 0.01 mg/ml) in kinase buffer and kinase buffer (50 μM; 5 μL) are mixed in an eppendorf on ice. […] The assay squares are transferred to a scintillation vial, 5 ml scintillation cocktail are added and ^32P incorporation (cpm) to the peptide substrate is quantified with a Beckman scintillation counter. Percentage inhibition is calculated for each reaction.

The target in a further test is T2, M351T BCR-Abl (Homo sapiens, UniProt P00519, M351T).
T2 construct: expressed in transfected cells; host or cells: Ba/F3; the other entry of the earlier key: BCR (P11274, Breakpoint cluster region protein)
Briefly: Antiproliferative effect on Ba/F3 cells expressing M351T BCR-Abl. The test is classed as cell-based. As to conditions: Ba/F3 cells expressing M351T mutant. As to the method:
(§2) 32D-p210 cells are plated into 96 well TC plates at a density of 15,000 cells per well. 50 μL of two fold serial dilutions of the test compound (Cmax is 40 μM) are added to each well (STI571 is included as a positive control). After incubating the cells for 48 hours at 37° C., 5% CO2, 15 μL of MTT (Promega) is added to each well and the cells are incubated for an additional 5 hours. The optical density at 570 nm is quantified spectrophotometrically and IC50 values, the concentration of compound required for 50% inhibition, determined from a dose response curve.
(§3) Compounds of the invention are tested for their antiproliferative effect on Ba/F3 cells expressing either wild type or the mutant forms of BCR-Abl (G250E, E255V, T315I, F317L, M351T) that confers resistance or diminished sensitivity to STI571. The antiproliferative effect of these compounds on the mutant-BCR-Abl expressing cells and on the non transformed cells were tested at 10, 3.3, 1.1 and 0.37 μM as described above (in media lacking IL3). The IC50 values of the compounds lacking toxicity on the untransformed cells were determined from the dose response curves obtained as describe above.

The target in another test is B-RAF (Homo sapiens, UniProt P15056). Briefly: B-RAF kinase inhibition assay (IκBα substrate). The class given is biochemical. As to conditions: 20 μM ATP. As to the method:
Compounds of the invention are tested for their ability to inhibit the activity of B-RAF. The assay is carried out in 384-well MaxiSorp plates (NUNC) with black walls and clear bottom. The substrate, IκBα is diluted in DPBS (1:750) and 15 μL is added to each well. The plates are incubated at 4° C. overnight and washed 3 times with TBST (25 mM Tris, pH 8.0, 150 mM NaCl and 0.05% Tween-20) using the EMBLA plate washer. Plates are blocked by Superblock (15 μL/well) for 3 hours at room temperature, washed 3 times with TBST and pat-dried. Assay buffer containing 20 μM ATP (10 μL) is added to each well followed by 100 nL or 500 nL of compound. B-RAF is diluted in the assay buffer (1 μL into 25 μl) and 10 μL of diluted B-RAF is added to each well (0.4 μg/well). The plates are incubated at room temperature for 2.5 hours. The kinase reaction is stopped by washing the plates 6 times with TBST. Phosph-IκBα (Ser32/36) antibody is diluted in Superblock (1:10,000) and 15 μL is added to each well. The plates are incubated at 4° C. overnight and washed 6 times with TBST. AP-conjugated goat-anti-mouse IgG is diluted in Superblock (1:1,500) and 15 μL is added to each well. Plates are incubated at room temperature for 1 hour and washed 6 times with TBST. […] Plates are read on Acquest or Analyst GT using a Fluorescence Intensity Nanxin BBT anion (505 dichroic mirror).

The next test has as its target T3, F317L BCR-Abl (Homo sapiens, UniProt P00519, F317L).
T3 construct: expressed in transfected cells; host or cells: Ba/F3; the other entry of the earlier key: BCR (P11274, Breakpoint cluster region protein)
Description: Antiproliferative effect on Ba/F3 cells expressing F317L BCR-Abl. The test is classed as cell-based. As to conditions: Ba/F3 cells expressing F317L mutant. As to the method:
as §2, §3

Another test addresses T4, G250E BCR-Abl (Homo sapiens, UniProt P00519, G250E).
T4 construct: expressed in transfected cells; host or cells: Ba/F3; the other entry of the earlier key: BCR (P11274, Breakpoint cluster region protein)
Description: Antiproliferative effect on Ba/F3 cells expressing G250E BCR-Abl. The class given is cell-based. As to conditions: Ba/F3 cells expressing G250E mutant. As to the method:
as §2, §3

For another test, the target named is T5, SAPK2β (Homo sapiens, UniProt Q15759).
T5 construct: purchased Upstate (KinaseProfiler panel)
T5 sequence (Q15759 whole entry): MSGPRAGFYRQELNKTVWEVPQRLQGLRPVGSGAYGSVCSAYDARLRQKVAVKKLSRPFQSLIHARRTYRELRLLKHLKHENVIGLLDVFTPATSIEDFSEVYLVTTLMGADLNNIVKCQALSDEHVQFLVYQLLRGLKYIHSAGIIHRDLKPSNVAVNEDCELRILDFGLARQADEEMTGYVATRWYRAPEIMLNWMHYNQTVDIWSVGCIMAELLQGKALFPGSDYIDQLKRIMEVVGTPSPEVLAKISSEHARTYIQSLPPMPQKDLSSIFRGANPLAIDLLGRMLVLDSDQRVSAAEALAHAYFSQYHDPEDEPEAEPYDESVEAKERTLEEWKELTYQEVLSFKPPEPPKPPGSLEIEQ
Description: Upstate KinaseProfiler radio-enzymatic filter binding assay, SAPK2β. The class given is biochemical. Particulars: at a concentration of 10 μM; read-out: percentage inhibition of SAPK2β. Here is the method: as §1

A further test addresses T6, Fes (Homo sapiens, UniProt P07332).
T6 construct: purchased Upstate (KinaseProfiler panel)
Description: Upstate KinaseProfiler radio-enzymatic filter binding assay, Fes. Particulars: at a concentration of 10 μM; read-out: percentage inhibition of Fes. The class given is biochemical. As to the method:
as §1

The target of a further test is T7, TrkB (Homo sapiens, UniProt Q16620).
T7 construct: purchased Upstate (KinaseProfiler panel)
T7 sequence (Q16620 32-822): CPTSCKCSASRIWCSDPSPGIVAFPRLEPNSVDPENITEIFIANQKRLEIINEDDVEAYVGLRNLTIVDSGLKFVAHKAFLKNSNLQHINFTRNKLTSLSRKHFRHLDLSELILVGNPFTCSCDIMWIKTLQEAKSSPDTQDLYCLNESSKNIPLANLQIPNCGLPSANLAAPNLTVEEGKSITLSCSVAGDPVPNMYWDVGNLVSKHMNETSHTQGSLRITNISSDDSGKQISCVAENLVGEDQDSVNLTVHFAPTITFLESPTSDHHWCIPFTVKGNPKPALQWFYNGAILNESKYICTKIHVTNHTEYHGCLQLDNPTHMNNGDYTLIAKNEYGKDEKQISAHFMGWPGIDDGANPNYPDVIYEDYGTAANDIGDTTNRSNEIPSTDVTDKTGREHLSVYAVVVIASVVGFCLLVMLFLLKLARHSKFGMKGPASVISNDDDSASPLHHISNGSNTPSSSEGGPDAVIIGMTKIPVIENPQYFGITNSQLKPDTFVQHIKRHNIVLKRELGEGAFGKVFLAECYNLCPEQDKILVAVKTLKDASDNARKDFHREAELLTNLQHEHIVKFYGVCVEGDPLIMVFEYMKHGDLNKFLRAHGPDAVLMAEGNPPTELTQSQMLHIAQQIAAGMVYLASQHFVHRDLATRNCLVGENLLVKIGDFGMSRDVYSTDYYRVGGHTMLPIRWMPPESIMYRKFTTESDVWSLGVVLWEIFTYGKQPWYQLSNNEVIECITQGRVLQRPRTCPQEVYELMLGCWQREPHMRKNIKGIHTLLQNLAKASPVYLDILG
Briefly: Upstate KinaseProfiler radio-enzymatic filter binding assay, TrkB. The class given is biochemical. As to conditions: at a concentration of 10 μM; read-out: percentage inhibition of TrkB. Here is the method: as §1

The next test addresses T8, T315I BCR-Abl (Homo sapiens, UniProt P00519, T315I).
T8 construct: expressed in transfected cells; host or cells: Ba/F3; the other entry of the earlier key: BCR (P11274, Breakpoint cluster region protein)
T8 sequence (P00519 229-512 T315I limits assumed): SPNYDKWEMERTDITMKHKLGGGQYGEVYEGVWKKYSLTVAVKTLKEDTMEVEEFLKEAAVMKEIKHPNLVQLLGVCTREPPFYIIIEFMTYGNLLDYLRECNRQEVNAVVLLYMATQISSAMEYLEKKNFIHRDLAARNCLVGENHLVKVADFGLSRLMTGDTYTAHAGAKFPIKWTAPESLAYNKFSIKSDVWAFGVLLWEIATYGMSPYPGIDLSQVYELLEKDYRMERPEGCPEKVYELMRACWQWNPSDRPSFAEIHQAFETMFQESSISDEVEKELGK
Briefly: Antiproliferative effect on Ba/F3 cells expressing T315I BCR-Abl. The class given is cell-based. As to conditions: Ba/F3 cells expressing T315I mutant. Here is the method: as §2, §3

The target in a further test is T9, E255V BCR-Abl (Homo sapiens, UniProt P00519, E255V).
T9 construct: expressed in transfected cells; host or cells: Ba/F3; the other entry of the earlier key: BCR (P11274, Breakpoint cluster region protein)
Briefly: Antiproliferative effect on Ba/F3 cells expressing E255V BCR-Abl. The class given is cell-based. Particulars: Ba/F3 cells expressing E255V mutant. Here is the method:
as §2, §3

The target in another test is T10, Lck (Homo sapiens, UniProt P06239).
T10 construct: purchased Upstate (KinaseProfiler panel)
T10 sequence (P06239 whole entry): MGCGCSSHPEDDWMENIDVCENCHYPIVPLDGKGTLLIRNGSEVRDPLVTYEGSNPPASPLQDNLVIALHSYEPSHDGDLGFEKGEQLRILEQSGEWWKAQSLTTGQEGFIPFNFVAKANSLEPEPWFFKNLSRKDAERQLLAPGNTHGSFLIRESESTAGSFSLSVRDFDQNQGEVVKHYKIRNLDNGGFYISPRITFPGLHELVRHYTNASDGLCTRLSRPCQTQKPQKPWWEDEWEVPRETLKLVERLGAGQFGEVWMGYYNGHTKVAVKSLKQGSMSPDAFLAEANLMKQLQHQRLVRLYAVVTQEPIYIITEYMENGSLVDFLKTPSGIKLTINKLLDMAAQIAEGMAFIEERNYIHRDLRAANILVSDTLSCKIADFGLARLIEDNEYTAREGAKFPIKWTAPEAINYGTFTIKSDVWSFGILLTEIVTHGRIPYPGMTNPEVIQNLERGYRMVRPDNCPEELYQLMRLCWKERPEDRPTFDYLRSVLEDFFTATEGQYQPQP
Description: Upstate KinaseProfiler radio-enzymatic filter binding assay, Lck. As to conditions: at a concentration of 10 μM; read-out: percentage inhibition of Lck. The test is classed as biochemical. As to the method:
as §1

For a further test, the target named is T11, wild type BCR-Abl (Homo sapiens, UniProt P00519).
T11 construct: expressed in transfected cells; host or cells: Ba/F3; the other entry of the earlier key: BCR (P11274, Breakpoint cluster region protein)
Briefly: Antiproliferative effect on Ba/F3 cells expressing wild type BCR-Abl. The class given is cell-based. As to the method:
as §2, §3

A further test concerns the target T12, CSK (Homo sapiens, UniProt P41240).
T12 construct: purchased Upstate (KinaseProfiler panel)
Briefly: Upstate KinaseProfiler radio-enzymatic filter binding assay, CSK. The test is classed as biochemical. Particulars: at a concentration of 10 μM; read-out: percentage inhibition of CSK. As to the method:
as §1

The target of the next test is T13, c-Raf (Homo sapiens, UniProt P04049).
T13 construct: purchased Upstate (KinaseProfiler panel)
T13 sequence (P04049 whole entry): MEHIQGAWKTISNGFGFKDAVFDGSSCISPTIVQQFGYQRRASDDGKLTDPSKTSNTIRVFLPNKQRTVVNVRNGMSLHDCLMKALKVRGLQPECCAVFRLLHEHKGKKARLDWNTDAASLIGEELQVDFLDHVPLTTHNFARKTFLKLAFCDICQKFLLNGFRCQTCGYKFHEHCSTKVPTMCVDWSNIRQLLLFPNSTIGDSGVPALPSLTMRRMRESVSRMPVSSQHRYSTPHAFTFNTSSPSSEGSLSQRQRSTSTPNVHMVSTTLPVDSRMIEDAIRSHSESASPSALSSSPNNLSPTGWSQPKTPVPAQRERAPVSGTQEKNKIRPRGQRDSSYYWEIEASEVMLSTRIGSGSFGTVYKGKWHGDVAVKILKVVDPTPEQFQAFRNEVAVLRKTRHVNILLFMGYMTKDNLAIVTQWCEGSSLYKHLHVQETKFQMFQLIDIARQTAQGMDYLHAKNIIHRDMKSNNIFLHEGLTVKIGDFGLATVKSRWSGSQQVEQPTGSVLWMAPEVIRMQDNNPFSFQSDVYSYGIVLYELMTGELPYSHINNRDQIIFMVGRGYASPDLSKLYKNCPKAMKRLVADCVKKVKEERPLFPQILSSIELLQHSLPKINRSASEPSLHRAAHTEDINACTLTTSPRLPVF
Description: Upstate KinaseProfiler radio-enzymatic filter binding assay, c-Raf. The class given is biochemical. Particulars: at a concentration of 10 μM; read-out: percentage inhibition of c-Raf. As to the method: as §1

A further test addresses T14, MKK6 (Homo sapiens, UniProt P52564).
T14 construct: purchased Upstate (KinaseProfiler panel)
T14 sequence (P52564 1-334): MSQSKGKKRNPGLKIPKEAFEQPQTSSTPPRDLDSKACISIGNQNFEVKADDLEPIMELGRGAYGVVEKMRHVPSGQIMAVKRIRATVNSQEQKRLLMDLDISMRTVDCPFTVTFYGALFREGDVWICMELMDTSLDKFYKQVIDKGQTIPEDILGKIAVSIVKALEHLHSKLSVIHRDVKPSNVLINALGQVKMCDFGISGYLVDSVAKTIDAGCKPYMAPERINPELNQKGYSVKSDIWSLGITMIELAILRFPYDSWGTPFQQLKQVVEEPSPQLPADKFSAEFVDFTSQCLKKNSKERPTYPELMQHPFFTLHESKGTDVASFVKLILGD
Description: Upstate KinaseProfiler radio-enzymatic filter binding assay, MKK6. The test is classed as biochemical. As to conditions: at a concentration of 10 μM; read-out: percentage inhibition of MKK6. Here is the method:
as §1

The target in another test is T15, FGFR3 (Homo sapiens, UniProt P22607).
T15 construct: purchased Upstate (KinaseProfiler panel)
T15 sequence (P22607 23-806): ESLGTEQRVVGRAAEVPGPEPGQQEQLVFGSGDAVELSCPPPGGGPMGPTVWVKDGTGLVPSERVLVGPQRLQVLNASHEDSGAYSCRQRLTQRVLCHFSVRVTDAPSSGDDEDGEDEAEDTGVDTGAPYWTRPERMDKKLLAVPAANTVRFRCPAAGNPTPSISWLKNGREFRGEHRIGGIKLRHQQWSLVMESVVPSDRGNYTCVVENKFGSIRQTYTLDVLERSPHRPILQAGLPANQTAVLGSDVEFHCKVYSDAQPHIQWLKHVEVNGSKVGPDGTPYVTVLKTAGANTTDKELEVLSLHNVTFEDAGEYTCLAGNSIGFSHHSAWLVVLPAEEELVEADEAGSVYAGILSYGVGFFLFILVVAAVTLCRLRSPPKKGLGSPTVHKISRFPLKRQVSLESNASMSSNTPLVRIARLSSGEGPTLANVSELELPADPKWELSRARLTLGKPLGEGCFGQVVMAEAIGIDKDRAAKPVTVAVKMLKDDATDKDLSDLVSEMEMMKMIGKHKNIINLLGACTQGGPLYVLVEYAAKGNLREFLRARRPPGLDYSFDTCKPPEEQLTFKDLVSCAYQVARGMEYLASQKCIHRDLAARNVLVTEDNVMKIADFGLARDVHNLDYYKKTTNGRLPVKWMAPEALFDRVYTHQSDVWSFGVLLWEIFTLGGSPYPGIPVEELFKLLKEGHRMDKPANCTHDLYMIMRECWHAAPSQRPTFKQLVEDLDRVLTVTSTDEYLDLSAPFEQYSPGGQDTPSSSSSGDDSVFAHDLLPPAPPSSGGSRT
Description: Upstate KinaseProfiler radio-enzymatic filter binding assay, FGFR3. The class given is biochemical. As to conditions: at a concentration of 10 μM; read-out: percentage inhibition of FGFR3. As to the method:
as §1

For a further test, the target named is T16, SAPK2α (Homo sapiens, UniProt Q16539).
T16 construct: purchased Upstate (KinaseProfiler panel)
T16 sequence (Q16539 whole entry): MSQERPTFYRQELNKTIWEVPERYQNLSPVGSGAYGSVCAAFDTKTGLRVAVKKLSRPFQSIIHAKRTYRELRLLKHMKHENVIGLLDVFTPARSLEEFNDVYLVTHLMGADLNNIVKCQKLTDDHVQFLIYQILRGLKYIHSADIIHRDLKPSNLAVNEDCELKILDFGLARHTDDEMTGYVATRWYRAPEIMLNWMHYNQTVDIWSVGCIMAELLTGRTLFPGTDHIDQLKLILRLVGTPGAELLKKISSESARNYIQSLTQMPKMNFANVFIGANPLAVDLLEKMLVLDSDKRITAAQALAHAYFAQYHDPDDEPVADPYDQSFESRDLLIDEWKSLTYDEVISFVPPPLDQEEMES
Briefly: Upstate KinaseProfiler radio-enzymatic filter binding assay, SAPK2α. Particulars: at a concentration of 10 μM; read-out: percentage inhibition of SAPK2α. The test is classed as biochemical. As to the method: as §1

As a reminder, the inhibition is the drop in the measured response relative to a control, in per cent. As a reminder, the IC50 is the concentration needed to halve the response being measured. A low value points to higher potency.

T12 sequence (P41240 whole entry): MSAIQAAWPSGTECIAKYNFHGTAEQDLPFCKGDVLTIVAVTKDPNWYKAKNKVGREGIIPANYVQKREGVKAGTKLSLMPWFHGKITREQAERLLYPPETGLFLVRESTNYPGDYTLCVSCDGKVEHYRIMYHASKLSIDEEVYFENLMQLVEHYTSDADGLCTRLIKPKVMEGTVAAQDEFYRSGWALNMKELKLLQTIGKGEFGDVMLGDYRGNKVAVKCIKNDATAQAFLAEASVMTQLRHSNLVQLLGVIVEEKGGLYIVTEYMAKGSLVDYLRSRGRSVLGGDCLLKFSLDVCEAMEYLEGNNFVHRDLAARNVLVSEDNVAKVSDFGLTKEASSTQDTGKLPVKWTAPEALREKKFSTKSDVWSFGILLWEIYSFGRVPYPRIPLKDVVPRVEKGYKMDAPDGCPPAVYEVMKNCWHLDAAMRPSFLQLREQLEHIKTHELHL
T6 sequence (P07332 whole entry): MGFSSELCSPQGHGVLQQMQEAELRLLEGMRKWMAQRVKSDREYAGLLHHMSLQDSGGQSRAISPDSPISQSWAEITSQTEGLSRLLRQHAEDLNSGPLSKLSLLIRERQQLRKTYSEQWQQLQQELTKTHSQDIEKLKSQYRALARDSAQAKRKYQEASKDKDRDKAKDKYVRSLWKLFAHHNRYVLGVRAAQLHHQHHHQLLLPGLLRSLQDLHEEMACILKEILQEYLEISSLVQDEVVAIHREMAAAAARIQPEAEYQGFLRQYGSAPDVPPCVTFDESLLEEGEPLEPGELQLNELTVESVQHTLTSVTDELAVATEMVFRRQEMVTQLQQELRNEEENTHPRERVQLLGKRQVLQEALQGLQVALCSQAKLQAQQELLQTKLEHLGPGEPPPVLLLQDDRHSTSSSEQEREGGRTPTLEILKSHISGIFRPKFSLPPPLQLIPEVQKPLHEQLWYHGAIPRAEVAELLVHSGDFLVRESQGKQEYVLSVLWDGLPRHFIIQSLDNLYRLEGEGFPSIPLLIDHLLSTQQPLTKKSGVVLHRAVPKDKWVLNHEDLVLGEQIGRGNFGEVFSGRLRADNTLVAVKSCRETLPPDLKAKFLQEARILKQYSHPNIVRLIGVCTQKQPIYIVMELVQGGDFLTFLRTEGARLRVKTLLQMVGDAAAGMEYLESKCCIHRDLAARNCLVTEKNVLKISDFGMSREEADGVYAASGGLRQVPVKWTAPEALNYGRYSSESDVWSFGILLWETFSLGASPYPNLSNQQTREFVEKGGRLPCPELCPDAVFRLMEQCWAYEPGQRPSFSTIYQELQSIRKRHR

`Cc1cn(-c2cc(C(=O)Nc3ccc(C)c(NC(=O)n4ccc5c(Nc6cccc(N(C)C)c6)ncnc54)c3)cc(C(F)(F)F)c2)cn1` [Example 3, 4-(3-Dimethylamino-phenylamino)-pyrrolo[2,3-d]pyrimidine-7-carboxylic acid {2-methyl-5-[3-(4-methyl-imidazol-1-yl)-5-trifluoromethyl-benzoylamino]-phenyl}-amide]: the inhibition at 10 µM on Bmx turned out to be 100%; on SAPK2β, 95%; on Fes it was 82%; on TrkB it was 100%; at Lck, 95%; on CSK, 90%. The inhibition at 10 µM at c-Raf was determined as 83%. Moreover, the IC50 against M351T BCR-Abl was 29 nM; against B-RAF, 32 nM; at F317L BCR-Abl, 50 nM; on G250E BCR-Abl, 170 nM; at T315I BCR-Abl it was 370 nM; at E255V BCR-Abl, 220 nM. At wild type BCR-Abl, the IC50 was 22 nM.

Regarding `Cc1cn(-c2cc(C(=O)Nc3ccc(C)c(NC(=O)n4ccc5c(Nc6cccc(C(N)=O)c6)ncnc54)c3)cc(C(F)(F)F)c2)cn1` [Example 7, 4-(3-Carbamoyl-phenylamino)-pyrrolo[2,3-d]pyrimidine-7-carboxylic acid {2-methyl-5-[3-(4-methyl-imidazol-1-yl)-5-trifluoromethyl-benzoylamino]-phenyl}-amide], the inhibition at 10 µM at Bmx stood at 100%; at SAPK2β, 100%; on Fes, 98%; at TrkB it was 98%; at Lck, 96%; on MKK6 it was 98%. For the same compound, the inhibition at 10 µM stood at 95% at FGFR3, 100% on CSK, 99% on c-Raf and 100% at SAPK2α. The IC50 against M351T BCR-Abl worked out at 5 nM; against F317L BCR-Abl, 9 nM; against G250E BCR-Abl, 47 nM; at T315I BCR-Abl, 115 nM; at E255V BCR-Abl, 31 nM; on wild type BCR-Abl, 5 nM.

The values are drawn from patent US7338957B2, “Compounds and compositions as protein kinase inhibitors” (IRM LLC, priority 2003, dated 2008).
